# According to patent publication US20080280994A1, “Ascophyllum Compositions and Methods” (OCEAN NUTRITION CANDA LTD., priority 2004, published 2008):
# Legend:
# [1] = test system: STZ-diabetic mice (KunMing strain); assay: 4-week treatment study in streptozotocin-induced diabetic mice; assay type: in vivo
# Protocol: Animal Model. […] Diabetes was induced in mice with a single injection of streptozotocin (STZ). After fasting for 12 hrs, male mice with body weight above 20 g were given STZ dissolved in sodium citrate buffer via tail vein at a dose of 110 mg/kg body weight. […] Diabetic animals were divided into 5 groups (10 mice per group). Of these, 3 groups were treated with test samples, one group was a control group, receiving vehicle alone, and one group received metformin, an oral anti-diabetic agent. A sixth group, consisting of non-diabetic mice, was also included for comparison. They were treated with vehicle alone. Mice were housed 5 to a cage with free access to food and water. Test Samples and Dose. A. nodosum samples tested were as follows: 1) crude extract, CE 2) polyphenolic fraction, PPF 3) polysaccharide fraction, PSF Samples were dissolved in carboxymethylcellulose (CMC; 0.5%). Test sample solutions were prepared every morning at a concentration of 20 mg/ml in distilled water and given via gavage at a volume of 0.2 mL/20 g BW to deliver a dose of 200 mg/kg body weight. The control groups were gavaged with distilled water (0.2 mL/20 g BW). […] Animals were treated daily for 4 weeks. Measurements.
# STZ-diabetic mice = assay: Sucrose challenge in diabetic mice; assay type: in vivo
# Protocol: Animal model. Mice were made diabetic as described above and were allotted to eight groups (10 animals per group) as follows: […] Treatment and Measurement. Test samples were prepared at appropriate concentrations so that the required doses were delivered in a volume of 0.2 mL/20 g body weight. Acarbose was also dissolved in 0.5% CMC ([…]) and given at a dose of 25 mg/kg BW. Ten minutes after gavaging of samples, blood was sampled from tail vein for glucose measurement (Time 0). The animals were then gavaged with sucrose (20% in water at a dose of 2 g/kg body weight). […] A group of non-diabetic mice were given an equivalent volume of saline (0.2 ml/20 g BW).
# [2] = STZ-diabetic mice, Day 28, dose 200 mg/kg, mean ± S.D.
# [3] = STZ-diabetic mice, daily gavage, printed dose 200 mg/kg, mean ± S.D.
# [4] = sucrose challenge, acarbose-treated mice
compound,measurement,setting,value
"CN(C)C(=N)N=C(N)N [Metformin, metformin]",serum glucose versus STZ-diabetic mice (in words),"[1]; 4-week treatment, P<0.05",significantly lower serum glucose at each of the time points
same,blood total antioxidant level (in words),[1]; Day 28,significant increases in antioxidant activity
same,glycated Hb versus STZ-diabetic mice (in words),[1]; Day 28,reduced
same,total cholesterol versus STZ-diabetic mice (in words),[1]; Day 28,reduced
same,liver glycogen level (in words),"[1]; Day 28, STZ-diabetic mice",significantly increased liver glycogen level
same,AntIoxidant activity (U/ml serum),[1]; [2],8.15 ± 1.8 U/ml serum
same,Glycated Hb,[1]; [2],5.22 ± 0.5 mmol/L
same,Liver glycogen (mg/g wet tissue),[1]; [2],5.51 ± 0.8 mg/g wet tissue
same,Total Cholesterol,[1]; [2],1.93 ± 0.7 mmol/L
same,Blood glucose (mM) Day 7,[1]; [3],13.04 ± 5.8 mM
same,Blood glucose (mM) Day 14,[1]; [3],11.60 ± 4.1 mM
same,Blood glucose (mM) Day 21,[1]; [3],12.38 ± 4.7 mM
same,Blood glucose (mM) Day 28,[1]; [3],13.59 ± 7.7 mM
same,Blood glucose (mM) Day 0,"[1]; STZ-diabetic mice, start of treatment period, mean ± S.D.",13.50 ± 2.5 mM
"C[C@H]1O[C@H](O[C@H]2[C@H](O)[C@@H](O)[C@@H](O[C@H]3[C@H](O)[C@@H](O)C(O)O[C@@H]3CO)O[C@@H]2CO)[C@H](O)[C@@H](O)[C@@H]1N[C@H]1C=C(CO)[C@@H](O)[C@H](O)[C@H]1O (stereo partly drawn) [Acarbose, acarbose]","serum glucose level, 0 min","STZ-diabetic mice; sucrose challenge 2 g/kg, dose 25 mg/kg, 0 min",15.64 ± 2.6 mmol/L
same,"serum glucose level, 10 min","STZ-diabetic mice; sucrose challenge 2 g/kg, dose 25 mg/kg, 10 min",21.71 ± 3.6 mmol/L
same,"serum glucose level, 30 min","STZ-diabetic mice; sucrose challenge 2 g/kg, dose 25 mg/kg, 30 min",24.67 ± 4.1 mmol/L
same,"serum glucose level, 60 min","STZ-diabetic mice; sucrose challenge 2 g/kg, dose 25 mg/kg, 60 min",19.80 ± 4.8 mmol/L
same,"serum glucose level, 120 min","STZ-diabetic mice; sucrose challenge 2 g/kg, dose 25 mg/kg, 120 min",14.29 ± 2.9 mmol/L
same,area-under-the-curve (AUC) for glucose,STZ-diabetic mice; [4],2340 units (mmol/L×120 min.)
same,reduction of glucose AUC versus STZ-mice,STZ-diabetic mice; [4],33%
